Results from patent US8410168B2, “Methods and compositions for treating ophthalmic conditions with retinyl derivatives” (Acucela, Inc., priority 2004, dated 2013).
One block for each molecule: values may come before it.

How the values were obtained:
[1] = biological target: T1, CRALBP (Homo sapiens, UniProt P12271); experiment: Fluorescence quenching study of binding to CRALBP
T1 construct: made in house
Experimental: Apo-CRALBP at 0.5 μM was incubated with 1 μM of 11-cis Retinal (11cRAL), all-trans retinal (atRAL) or N-4-hydroxyphenyl retinamide (HPR) in PBS at room temperature for 1 hour. As a control, same volume of DMSO was added to the Apo-CRABLP solution. The emission spectra were measured between 290 nm to 500 nm with excitation wavelength at 280 nm and 2 nm bandpass (See FIG. 7).
Quenching of CRALBP protein fluorescence with 11-cis retinal (11cRAL). The fluorescence emission of recombinant apo-CRALBP (0.5 μM) was measured using 280 nm excitation (“no 11cRAL”).
Quenching of CRALBP protein fluorescence with HPR. The data shown were obtained using an experimental design identical to that described above. The fluorescence emission of recombinant apo-CRALBP was measured using 280 nm excitation (“no HPR”).
We performed an analysis of the dissociation constant (KD) for 11cRAL and HPR binding to apo-CRALBP (see FIG. 15). […] This calculation is based upon the ligand concentration necessary to fully quench the protein fluorescence. The data reveal that both 11cRAL and HPR quench apo-CRALBP fluorescence maximally at ˜1.5 μM. Thus, although apo-CRALBP is described as an 11 cis-specific retinoid binding protein, it appears to bind HPR as well.

[2] = biological target: T1, CRALBP; experiment: Size exclusion chromatography study of binding to CRALBP; settings: 4 μM apo-CRALBP, 8 μM ligand
Experimental: Apo-CRALBP at 4 μM was incubated with 8 μM of 11cRAL, atRAL or HPR in PBS at room temperature for 1 hour. In control experiment, equivalent volume of DMSO was added to the CRALBP solution. 50 μl of each sample mixture was analyzed by BioRad Bio-Sil SEC125 Gel Filtration Column (300×7.8 mm).

[3] = biological target: T2, apo-CRALBP (Homo sapiens, UniProt P12271); experiment: Ni+ affinity column and spectroscopic analysis of binding to CRALBP; settings: 10 μM apo-CRALBP, 20 μM ligand
T2 construct: made in house
Experimental: In order to confirm data obtained during fluorescence analysis of HPR binding to CRALBP, a second analysis was performed using affinity chromatography and spectroscopic analysis. The recombinant apo-CRALBP was constructed with a histidine tag which is utilized to purify the protein on a Ni+ affinity column following expression cloning. Here, we utilized this feature of apo-CRALBP to specifically “trap” the protein and any protein-ligand species for spectroscopic analysis. Two binding mixtures were prepared containing apo-CRALBP (10 μM) and either 11cRAL (20 μM) or HPR (20 μM). In control experiments for the analysis of non-specific ligand binding onto the affinity matrix, we prepared two additional mixtures containing only 11cRAL (20 μM) or HPR (20 μM) in binding buffer. The binding mixtures were passed through separate Ni+ affinity columns and the columns were washed extensively to elute unbound protein and ligand. Following the addition of elution buffer, the eluted fractions were analyzed by spectroscopy. […] Instead, two absorption maxima are seen: one at 280 nm and a second at 360 nm, which is attributable to the absorption of HPR (see FIG. 14).

[4] = biological target: TTR binding to RBP (Homo sapiens, UniProt P02753); experiment: Size exclusion study of TTR binding to RBP; settings: 10 μM RBP, 50 μM MPR, 10 μM TTR
Experimental: Apo-RBP at 10 μM was incubated with 50 μM of MPR in PBS at room temperature for 1 hour. 10 μM of TTR was then added to the solution, and the mixture was incubated for another hour at room temperature. […] of the sample mixtures with and without TTR addition were analyzed by BioRad Bio-Sil SEC 125 Gel Filtration Column (300×7.8 mm). In control experiments, atROL-RBP and atROL-RBP-TTR mixture were analyzed in the same manner.

[5] = biological target: RBP (Homo sapiens, UniProt P02753); experiment: Fluorescence quenching study of MPR binding to RBP
Experimental: Apo-RBP at 0.5 μM was incubated with 0, 0.25, 0.5, 1 and 2 μM of MPR in PBS at room temperature for 1 hour, respectively. As controls, the same concentration of Apo-RBP was also incubated with 1 μM of HPR or 1 μM of atROL. All mixtures contained 0.2% Ethanol (v/v). The emission spectra were measured between 290 nm to 550 nm with excitation wavelength at 280 nm and 3 nm bandpass.

[6] = system: ABCA4−/− mice; experiment: HPR drug holiday after 28 days of treatment; assay type: in vivo, mouse; settings: 28-day drug holiday
Experimental: HPR (10 mg/kg in DMSO) was administered to ABCA4−/− mice daily for a period of 28 days. Control ABCA4−/− mice received only DMSO for the same period. […] Importantly, the observed reductions in lipofuscin autofluorescence persist long after cessation of HPR therapy. HPR (10 mg/kg), or DMSO, administration was discontinued following 28 days of treatment and re-evaluated A2E and precursor levels after 2 weeks and after 4 weeks.
We examined eyecup extracts by HPLC and employed detection by absorbance and fluorimetry. Identity of the indicated peaks was confirmed by on-line spectral analysis and by co-elution with authentic standards. […] Further, the A2E and precursor (A2PE-H2 and A2PE) levels after a […] or 28-day drug holiday remained at or near the levels immediately following 28 days of treatment (i.e., ca. 50% reduction relative to control), although after the 28-day drug holiday, the amount of A2E and precursor (A2PE-H2 and A2PE) had increased by a few percentage points relative to the 12-day drug holiday levels. […] It is clear that peak fluorescence tracks with the abundance of A2E, A2PE and A2PE-H2.
This effect cannot be attributed to long-term reductions in serum retinol as serum retinol had returned to baseline 48 hours following the last HPR dose. […] Furthermore, HPR reduces serum retinol levels, which leads to a reduction in the level of retinol in the eyes of treated animals. Once the level of retinol has been reduced in the eye, there is a time lag in the subsequent increase in retinol levels in the eye. Alone or in combination, the production of A2E, A2PE and A2PE-H2 in the eye remains low despite the absence of HPR in the serum or the eye.

T1 sequence (P12271 whole entry, species assumed): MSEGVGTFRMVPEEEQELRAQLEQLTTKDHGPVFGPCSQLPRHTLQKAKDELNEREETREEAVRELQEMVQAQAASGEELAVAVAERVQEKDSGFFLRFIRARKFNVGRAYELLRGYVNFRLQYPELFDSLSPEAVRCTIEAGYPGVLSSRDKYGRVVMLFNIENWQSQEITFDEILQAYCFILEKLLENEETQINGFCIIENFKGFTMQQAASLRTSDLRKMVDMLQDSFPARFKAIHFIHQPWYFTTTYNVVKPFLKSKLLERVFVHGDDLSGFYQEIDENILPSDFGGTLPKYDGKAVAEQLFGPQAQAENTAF
T2 sequence (P12271 whole entry, species assumed): as above

concentration of maximal quenching of apo-CRALBP fluorescence [1]: ~1.5 µM | quenching of CRALBP fluorescence emission ([1]; 0.5 μM apo-CRALBP, 1 μM ligand, 1 hour, vs DMSO): highest degree of quenching | concentration dependence of CRALBP protein fluorescence quenching ([1]; 0.5 μM recombinant apo-CRALBP, 280 nm excitation): concentration dependent manner | Kd ([1]; transformation of fluorescence quenching data, read-out: dissociation constant (KD) for binding to apo-CRALBP): ~30 nM | binding to apo-CRALBP by absorption spectra of eluted fraction [3]: bound to CRALBP
SMILES: CC1=C(/C=C/C(C)=C/C=C/C(C)=C/C=O)C(C)(C)CCC1 [11cRAL, 11-cis retinal]
ligand bound to CRALBP (monomer elution peak absorbance) [2]: a majority of the CRALBP is bound with ligand

binding of ligand-RBP to TTR [4]: binds to TTR
SMILES: CC1=C(/C=C/C(C)=C/C=C/C(C)=C/CO)C(C)(C)CCC1 [atROL, all-trans retinol]

quenching of RBP fluorescence ([5]; 0.5 μM apo-RBP, 0-2 μM MPR): concentration-dependent quenching | concentration at which quenching of RBP fluorescence saturated ([5]; 0.5 μM of RBP): 1 µM | degree of RBP fluorescence quenching compared with other ligands ([5]; 1 μM controls): smaller than those by atROL and HPR | binding of ligand-RBP to TTR [4]: did not bind to TTR | detection in the eyes after drug holiday [6]: unable to detect
SMILES: COc1ccc(NC(=O)\C=C(C)/C=C/C=C(C)\C=C\C2=C(C)CCCC2(C)C)cc1 (stereo in doubt) [MPR, N-(4-methoxyphenyl)retinamide]

SMILES: CC1=C(/C=C/C(C)=C/C=C/C(C)=C/C=O)C(C)(C)CCC1 [atRAL, all-trans retinal]
ligand bound to CRALBP (monomer elution peak absorbance) [2]: Less than half of the atRAL is bound to CRALBP
